The source of these data is patent US20080206198A1, “Compounds and methods for pharmico-gene therapy of epithelial sodium channel associated disorders” (priority 2003, published 2008).

Peptide text beside a SMILES is read from it. * marks the point of attachment. Cbz = O=C(OCc1ccccc1)*

One data set has as its system liver. Description: rAAV transduction in liver with Z-LLL. The class given is in vivo, mouse. Particulars: 1 month post-infection. On the procedure: Recombinant AV.LacZ (5×10^10 particles) was also administered to mouse liver either as virus alone in PBS, virus in combination with 40 μM Z-LLL in PBS, or virus in combination with 20 μM LLnL in PBS. Virus was directly instilled into portal vein of the C57B6 mice. AAV-mediated LacZ transgene expression was evaluated by histology staining at 2 and 4 weeks post infection in frozen tissue sections.

A further data set deals with IB3-1 cells. Description: AAV2 FLAG-Luc transduction of IB3-1 cells. The class given is cell-based, human. Particulars: 20 to 80 μM. An excerpt:
A. To screen for agents that enhance rAAV transduction, any number of cells can be used. A range of concentrations of the agent to be tested can be determined based on, for instance desirable profiles of the agent, desirable toxicity profiles of the agent and/or concentration of the agents employed in vivo. The usefulness of the cell type chosen for the screen can be confirmed by testing compounds, e.g., proteasome inhibitors such as LLnL and ZLL which are known to increase rAAV transduction. For example, a AAV2 FLAG-Luc vector was employed to transduce HeLa, ferret fibroblasts, IB3 and Huh (liver) cells in the presence or absence of the proteasome inhibitor MG132. MG132 was confirmed to enhance AAV transduction in all cell types tested: HeLa cell transduction was enhanced about 500-fold at 80 μM, and 200-fold at 40 μM, MG132; ferret fibroblast cell transduction was enhanced about 200-fold at 20 μM, and 17-fold at 4 μM, MG132; IB3-1 cell transduction was enhanced about 30 to 70-fold at 20 to 80 μM MG132; and Huh-7 cell transduction was enhanced about 15-fold at 20 to 80 μM MG132. There was no difference in rAAV transduction efficiency in HeLa cells when either DMSO or ETOH was used as a vehicle for MG132. B. HeLa cells were selected to screen for additional agents that enhance rAAV transduction, although any cell strain or line; or primary cells, may be employed. […]

A further data set deals with mouse lung. Briefly: AV2.RSVlucCap5 nasal aspiration in mice with Z-LLL and/or doxorubicin. In kind it is in vivo. Particulars: 200 μM. Here is the method:
To determine in vivo transduction efficiency of AV2.RSVlucCap5, mice were infected with 6×10^10 particles of AV2.RSVlucCap5 by nasal aspiration alone (control) or in combination with 200 μM Z-LLL, 200 μM doxorubicin or 200 μM Z-LLL and 200 μM doxorubicin (12 mice per group). Co-administration of Z-LLL induced whole lung luciferase expression 17.2- and 2.1-fold at 14 (2 weeks) and 42 (6 weeks) days post-infection, respectively.

The next data set concerns γ-ENaC gene promoter. Briefly: Methylation-sensitive PCR of the γ-ENaC promoter CpG island in A549 cells. The class given is cell-based, human. The conditions noted are these: A549 genomic DNA. Here is the method: Analysis of γ-ENaC promoter CpG Methylation. The methylation status of a CpG island beginning at approximately −1.8 kb of the γ-ENaC promoter was analyzed using a previously described PCR method (Malik et al., 2001). Briefly, genomic DNA was isolated from A549 cells that had been treated with and without doxorubicin, and then digested overnight with Mbol, MboI/MspI, or Mbol/HpaII. PCR reactions were then performed using primers that flank the MspI/HpaII sites in this region. Primers: forward 5′-[…]-3′ (SEQ ID NO: 13); reverse 5′-[…]-3′ (SEQ ID NO: 14).

Another data set deals with ENaC. Description: Amiloride-sensitive short-circuit current in polarized CF airway epithelia. In kind it is cell-based, human. Particulars: data not shown. Here is the method:
Short-circuit current (Isc) measurement in polarized airway epithelia. Transepithelial short-circuit currents were measured using an epithelial voltage clamp and a self-contained Using chamber as described in Zabner et al. (1998). The basolateral side of the chamber was filled with Ringer's buffer solution containing 135 mM NaCl, 1.2 mM CaCl2, 2.4 mM KH2PO4, 0.2 mM K2HPO4, 1.2 mM MgCl2, and 5 mM HEPES, pH 7.4. The apical side of the chamber was filled with a low-chloride Ringer's containing 135 mM sodium gluconate, 1.2 mM CaCl2, 2.4 mM KH2PO4, 0.2 mM K2HPO4, 1.2 mM MgCl2, and 5 mM HEPES, pH 7.4. During the experiment, the chamber was maintained at 37° C. and aerated with 100% O2. Transepithelial voltage was clamped at zero, and the resulting Isc was measured and recorded following the sequential addition of the following channel antagonist and agonists: 1) 100 μM amiloride (apical), 2) 100 μM 4,4′-diisothiocyna-2,2′-disulfonic stilbene (DIDS) (apical), 3) 100 μM IBMX/10 μM forskolin (apical), 4) 100 μM bumetanide (basolateral). Voltage was referenced to the apical compartment. The series resistance of the Ringer's solution and transwell membrane was electrically compensated before starting experiments. All chemical agonists and antagonists were added to either the apical or the basolateral sides of the monolayer by direct injection and mixed by aerating the Ringer's solution. […]

A short description of another data set: Solubility in ethanol. In kind it is physicochemical.
The subject of data set [1] is polarized bronchial epithelia cells. Description: S^35-labeled rAAV binding/entry and in situ localization in polarized bronchial epithelia. In kind it is cell-based, human. Here is the method: Viral binding/entry assays and in situ localization of viral particles. To assess the binding of rAAV to polarized bronchial epithelia cells, S^35-labeled AV.GFP3ori was applied to either the apical or basal surface (MOI=50,000 particles/cell), followed by incubation at 4° C. for 60 minutes. Combined binding/entry of rAAV into differentiated airway epithelia was measured under the same conditions, except that the cultures were incubated at 37° C. for an additional 2-24 hours before they were harvested. These combined viral binding/entry assays were performed under identical infection conditions to those used for functional studies of rAAV transduction with transgene expression as an endpoint. After washing three times in PBS, cells were lysed in situ by the addition of 5 ml of liquid scintillation cocktail at room temperature for 5 minutes, and the radioactivity was quantitated in a scintillation counter.
To analyze the subcellular localization of the rAAV particles within polarized human bronchial epithelial cells, infection was performed by applying S^35 labeled virus (MOI=50,000 particles/cell) to either the mucosal or serosal surface. At 2 hours post-infection, transwells were washed with medium three times and fixed in 4% paraformaldehyde overnight prior to cryoprotection and embedding for frozen sectioning. 10 μm frozen sections were overlaid with photoemulsion and developed for 5 weeks according to a previously published protocol (Duan et al., 1998).

Data set [2] deals with polarized human airway epithelial cultures. Description: AV2.RSVluc and AV2.RSVlucCap5 transduction of polarized human airway epithelial cultures. In kind it is cell-based. Particulars: virus applied to the apical surface. An excerpt:
To better understand serotype-specific differences in airway transduction, the effect of proteasome inhibitors on rAAV-2 and rAAV-5 transduction in polarized human airway epithelial cultures and mouse lung was examined (FIGS. 2 and 6).

Consider `CC(C)C[C@@H](C=O)NC(=O)[C@H](CC(C)C)NC(=O)[C@H](CC(C)C)NC(=O)OCc1ccccc1` [Z-LLL, N-carbobenzoxyl-L-leucinyl-L-leucinyl-L-leucinal] (Cbz-Leu-Leu-Leu-aldehyde), for which, in the data set on liver, the “increase in rAAV transduction in the liver” value is reported as 7 fold. Further, the “enhancement of IB3-1 cell transduction” value with IB3-1 cells was in the range of 30 to 70 fold. The “induction of whole lung luciferase expression” value with mouse lung (14 days (2 weeks) post-infection) is 17.2 fold; in the data set on mouse lung (42 days (6 weeks) post-infection) it was 2.1 fold.

For `COc1cccc2c1C(=O)c1c(O)c3c(c(O)c1C2=O)C[C@@](O)(C(=O)CO)C[C@@H]3O[C@H]1C[C@H](N)[C@H](O)[C@H](C)O1` [doxorubicin], the “CpG methylation of the γ-ENaC promoter (protection from HpaII digestion)” value with γ-ENaC gene promoter is on record as “significant Dox-dependent protection from HpaII digestion”. Besides, the “inhibition of ENaC Isc by the single compound” value with ENaC is recorded as “equivalent inhibition of ENaC Isc as seen with combined Dox/LLnL”.

For the compound “N-acetyl-L-leucinyl-L-leucinal-L-norleucinal [LLnL]”, the solubility in ethanol entry in “Solubility in ethanol” is given as “poor solubility”. Further, in data set [1] (4° C.), the rAAV binding entry is reported as “no significant effect”. Further, the “uptake of S^35 labeled rAAV” value in data set [1] (2 hour infection period at 37° C.) is recorded as “not altered”. In addition, in data set [1] (2 hours post-infection, photoemulsion overlay), the “intracellular distribution of radiolabeled rAAV particles” value is “significant shift to nuclear associated grains”. In addition, the intracellular radioactivity result in data set [1] (24 hours post-infection) was “very significant decrease”. For the same compound, the “increase in AV2.RSVlucCap5 transduction” value in data set [2] amounted to 12 fold.
